Consider 7 compounds from patent publication US8394442B2, “Process for the preparation of a flavoring concentrate, and a flavoring concentrate” (SYMRISE AG, priority 2007, dated 2013).

Data set [1] in a line: log Pow: distribution coefficient between 1-octanol and water. To be noted: 1-octanol/water.
Excerpt: Log Pow*=log Pow*−x*P′(x)/log Pow Formula 2: • where log Pow is the decimal logarithm of the distribution coefficient of a substance between 1-octanol and water, • x is the resulting solvent proportion based on the total volume proportion, normalized as 1.0, and • P′(x) is the polarity parameter for the corresponding solvent for the solvent proportion x.
Data set [2] in a line: log Pow* calculated by Formula 2 from log Pow and the polarity parameter P′(x) of the ethanol/water mixture.
Where [3] appears, read: solvent ethanol, proportion 10%.
The mark [4] stands for this setting: solvent ethanol, proportion 30%.
[5] abbreviates: solvent ethanol, proportion 40%.
Setting [6] is: solvent ethanol, proportion 50%.
Where [7] appears, read: solvent ethanol, proportion 60%.
Where [8] appears, read: solvent ethanol, proportion 70%.
The mark [9] stands for this setting: solvent ethanol, proportion 80%.
[10] abbreviates: solvent ethanol, proportion 90%.
[11] abbreviates: solvent ethanol, proportion 100%.

Read-outs that look alike come from different tables or passages of the source.

`c1ccc2[nH]ccc2c1` [Indole]: the “log Pow” value in data set [1] came to 2.14. For the same compound, in data set [2] (solvent ethanol, proportion 2%), the “log Pow* (P′ 2%)” value is 2.05. The “log Pow* (P′ 4%)” value in data set [2] (solvent ethanol, proportion 4%) is reported as 1.96. Further, the “log Pow* (P′ 6%)” value in data set [2] (solvent ethanol, proportion 6%) is recorded as 1.88. The “log Pow* (P′ 8%)” value in data set [2] (solvent ethanol, proportion 8%) is on record as 1.80. Also, in data set [2] (setting [3]), the “log Pow* (P′ 10%)” value is 1.72. Besides, in data set [2] (setting [4]), the “log Pow* (P′ 30%)” value was 1.13. In addition, in data set [2] (setting [5]), the “log Pow* (P′ 40%)” value is 0.91. For the same compound, the “log Pow* (P′ 50%)” value in data set [2] (setting [6]) is recorded as 0.73. Also, the “log Pow* (P′ 60%)” value in data set [2] (setting [7]) was 0.57. In data set [2] (setting [8]), the “log Pow* (P′ 70%)” value is reported as 0.44. Further, in data set [2] (setting [9]), the “log Pow* (P′ 80%)” value is recorded as 0.32. In data set [2] (setting [10]), the “log Pow* (P′ 90%)” value is 0.22. The “log Pow* (P′ 100%)” value in data set [2] (setting [11]) was 0.13.
Regarding `CCCCCCCC=O` [Octanal], in data set [1], the “log Pow” value stood at 3.03. In addition, in data set [2], the “log Pow* (P′ 2%)” value is recorded as 2.96, the “log Pow* (P′ 4%)” value is reported as 2.90, the “log Pow* (P′ 6%)” value is reported as 2.84 and the “log Pow* (P′ 8%)” value is listed as 2.79. Moreover, in data set [2], the “log Pow* (P′ 10%)” value was 2.73, the “log Pow* (P′ 30%)” value is on record as 2.31, the “log Pow* (P′ 40%)” value is given as 2.16 and the “log Pow* (P′ 50%)” value is reported as 2.03. In addition, in data set [2], the “log Pow* (P′ 60%)” value is reported as 1.92, the “log Pow* (P′ 70%)” value was 1.83, the “log Pow* (P′ 80%)” value is 1.75 and the “log Pow* (P′ 90%)” value is recorded as 1.67. Also, in data set [2], the “log Pow* (P′ 100%)” value was 1.61.
Consider `CS` [Methylmercaptan], for which the “log Pow” value in data set [1] is given as 0.65. In addition, in data set [2] (solvent ethanol, proportion 2%), the “log Pow* (P′ 2%)” value is reported as 0.34. The “log Pow* (P′ 4%)” value in data set [2] (solvent ethanol, proportion 4%) is listed as 0.05. In addition, the “log Pow* (P′ 6%)” value in data set [2] (solvent ethanol, proportion 6%) is on record as −0.22. For the same compound, in data set [2] (solvent ethanol, proportion 8%), the “log Pow* (P′ 8%)” value was −0.48. Further, the “log Pow* (P′ 10%)” value in data set [2] (setting [3]) is reported as −0.73. The “log Pow* (P′ 30%)” value in data set [2] (setting [4]) is recorded as −2.68. For the same compound, in data set [2] (setting [5]), the “log Pow* (P′ 40%)” value was −3.40. The “log Pow* (P′ 50%)” value in data set [2] (setting [6]) is reported as −4.00. The “log Pow* (P′ 60%)” value in data set [2] (setting [7]) is reported as −4.51. Besides, in data set [2] (setting [8]), the “log Pow* (P′ 70%)” value is −4.95. Moreover, the “log Pow* (P′ 80%)” value in data set [2] (setting [9]) was −5.33. Besides, in data set [2] (setting [10]), the “log Pow* (P′ 90%)” value is on record as −5.67. Besides, the “log Pow* (P′ 100%)” value in data set [2] (setting [11]) is −5.97.
For `CC(=O)/C=C/C1=C(C)CCCC1(C)C` [beta-ionone], the “log Pow” value in data set [1] is recorded as 3.85. In data set [2] (solvent ethanol, proportion 2%), the “log Pow* (P′ 2%)” value is 3.80. Also, the “log Pow* (P′ 4%)” value in data set [2] (solvent ethanol, proportion 4%) is listed as 3.75. Further, the “log Pow* (P′ 6%)” value in data set [2] (solvent ethanol, proportion 6%) is recorded as 3.70. Further, the “log Pow* (P′ 8%)” value in data set [2] (solvent ethanol, proportion 8%) was 3.66. The “log Pow* (P′ 10%)” value in data set [2] (setting [3]) is 3.62. The “log Pow* (P′ 30%)” value in data set [2] (setting [4]) is 3.29. In addition, the “log Pow* (P′ 40%)” value in data set [2] (setting [5]) is 3.17. Also, the “log Pow* (P′ 50%)” value in data set [2] (setting [6]) is reported as 3.06. In data set [2] (setting [7]), the “log Pow* (P′ 60%)” value was 2.98. Moreover, the “log Pow* (P′ 70%)” value in data set [2] (setting [8]) is listed as 2.90. Also, the “log Pow* (P′ 80%)” value in data set [2] (setting [9]) is on record as 2.84. Moreover, the “log Pow* (P′ 90%)” value in data set [2] (setting [10]) is given as 2.78. Moreover, in data set [2] (setting [11]), the “log Pow* (P′ 100%)” value is 2.73.
Regarding `CC1=CCC(C(C)(C)S)CC1` (centres unmarked) [p-menthenethiol-1,8], the “log Pow” value in data set [1] is recorded as 4.04. Also, the “log Pow* (P′ 2%)” value in data set [2] (solvent ethanol, proportion 2%) is listed as 3.99. Further, in data set [2] (solvent ethanol, proportion 4%), the “log Pow* (P′ 4%)” value is listed as 3.94. Moreover, the “log Pow* (P′ 6%)” value in data set [2] (solvent ethanol, proportion 6%) was 3.90. Also, the “log Pow* (P′ 8%)” value in data set [2] (solvent ethanol, proportion 8%) is on record as 3.86. The “log Pow* (P′ 10%)” value in data set [2] (setting [3]) is listed as 3.82. In addition, the “log Pow* (P′ 30%)” value in data set [2] (setting [4]) was 3.50. Also, in data set [2] (setting [5]), the “log Pow* (P′ 40%)” value is 3.39. Moreover, the “log Pow* (P′ 50%)” value in data set [2] (setting [6]) was 3.29. Also, the “log Pow* (P′ 60%)” value in data set [2] (setting [7]) is 3.21. For the same compound, the “log Pow* (P′ 70%)” value in data set [2] (setting [8]) is 3.14. In data set [2] (setting [9]), the “log Pow* (P′ 80%)” value is reported as 3.08. Moreover, the “log Pow* (P′ 90%)” value in data set [2] (setting [10]) is 3.02. In data set [2] (setting [11]), the “log Pow* (P′ 100%)” value is 2.98.
In the case of `CC/C=C\CC1CCCC(=O)O1` (centres unmarked) [Jasmine lactone], in data set [1], the “log Pow” value was 2.47. In data set [2] (solvent ethanol, proportion 2%), the “log Pow* (P′ 2%)” value was 2.39. The “log Pow* (P′ 4%)” value in data set [2] (solvent ethanol, proportion 4%) is recorded as 2.31. Besides, in data set [2] (solvent ethanol, proportion 6%), the “log Pow* (P′ 6%)” value was 2.24. Besides, in data set [2] (solvent ethanol, proportion 8%), the “log Pow* (P′ 8%)” value is on record as 2.17. In addition, in data set [2] (setting [3]), the “log Pow* (P′ 10%)” value is listed as 2.11. Besides, in data set [2] (setting [4]), the “log Pow* (P′ 30%)” value was 1.59. Also, in data set [2] (setting [5]), the “log Pow* (P′ 40%)” value is 1.40. Further, in data set [2] (setting [6]), the “log Pow* (P′ 50%)” value is 1.25. Moreover, the “log Pow* (P′ 60%)” value in data set [2] (setting [7]) was 1.11. In addition, the “log Pow* (P′ 70%)” value in data set [2] (setting [8]) is recorded as 1.00. In data set [2] (setting [9]), the “log Pow* (P′ 80%)” value is given as 0.90. Besides, in data set [2] (setting [10]), the “log Pow* (P′ 90%)” value is reported as 0.81. Moreover, in data set [2] (setting [11]), the “log Pow* (P′ 100%)” value is listed as 0.73.
Turning to `CCC/C=C/C=O` [2E-hexenal], in data set [1], the “log Pow” value was found to be 1.61. Besides, the “log Pow* (P′ 2%)” value in data set [2] (solvent ethanol, proportion 2%) is given as 1.49. Further, the “log Pow* (P′ 4%)” value in data set [2] (solvent ethanol, proportion 4%) is reported as 1.37. The “log Pow* (P′ 6%)” value in data set [2] (solvent ethanol, proportion 6%) is 1.26. Moreover, the “log Pow* (P′ 8%)” value in data set [2] (solvent ethanol, proportion 8%) is recorded as 1.15. Further, the “log Pow* (P′ 10%)” value in data set [2] (setting [3]) is recorded as 1.05. The “log Pow* (P′ 30%)” value in data set [2] (setting [4]) is recorded as 0.26. Also, in data set [2] (setting [5]), the “log Pow* (P′ 40%)” value is given as −0.03. Moreover, the “log Pow* (P′ 50%)” value in data set [2] (setting [6]) is on record as −0.27. Besides, in data set [2] (setting [7]), the “log Pow* (P′ 60%)” value is −0.47. Moreover, the “log Pow* (P′ 70%)” value in data set [2] (setting [8]) is recorded as −0.65. The “log Pow* (P′ 80%)” value in data set [2] (setting [9]) is −0.81. Also, in data set [2] (setting [10]), the “log Pow* (P′ 90%)” value is −0.94. Besides, the “log Pow* (P′ 100%)” value in data set [2] (setting [11]) is given as −1.06.
